# Target: T1, PPARγ ligand-binding domain (PPARγ LBD) (Homo sapiens, UniProt P37231)
# T1 construct: gene PPARG
# T1 sequence (P37231 238-505 limits assumed): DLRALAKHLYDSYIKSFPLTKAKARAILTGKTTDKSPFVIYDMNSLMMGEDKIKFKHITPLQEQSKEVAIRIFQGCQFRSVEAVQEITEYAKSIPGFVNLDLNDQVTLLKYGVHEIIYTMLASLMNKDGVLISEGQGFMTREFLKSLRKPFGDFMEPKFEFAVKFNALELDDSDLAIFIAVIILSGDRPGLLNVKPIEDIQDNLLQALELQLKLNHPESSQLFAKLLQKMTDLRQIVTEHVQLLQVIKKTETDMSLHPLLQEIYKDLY
# Assay: fluorescence polarization competition (PolarScreen PPARγ Competitor Assay Green)
# Settings: displacement of fluorescent PPARγ ligand; ex 485 nm, em 535 nm; unreliable
row,IC50,SMILES
1,> 8000 µM,"Cc1ccc(C2(CC(=O)O)CCOC(C)(C)C2)cc1 (stereo not drawn) [C2, ZINC00201868]"
2,> 8000 µM,"COc1ccc(C(O)=C2C(=O)C(=O)N(Cc3cccnc3)C2c2ccc(O)cc2)c(C)c1 (stereo not drawn) [C3, ZINC00914339]"
3,> 8000 µM,"Cc1oc2c(C)c3oc(=O)c(CC(=O)N4CCC(C(=O)O)CC4)c(C)c3cc2c1C [C6, ZINC02156886]"

# Same assay, conditions: read-out: Binding affinityIC50
row,IC50,SMILES
1,12.4 µM,"C=C(C)COc1ccc2oc(-c3ccccc3)c(C(=O)O)c2c1 [C1, ZINC00083676]"
2,1000 µM,"CC(C)C(NC(=O)C(Cc1ccccc1)n1c(=O)[nH]c2ccccc2c1=O)C(=O)O (stereo not drawn) [C5, ZINC02128851]"
3,252 µM,"Cc1ccc(C(c2ccc(C)o2)c2ccccc2C(=O)O)o1 [C7, ZINC03846929]"
4,460 µM,"Cc1cc(C)c2c(O)nn(C3CCOC(C)(C)C3)c2n1 (stereo not drawn) [C8, ZINC04040746]"
5,585 µM,"CC1(C)SC2c3ccccc3C(=O)N2C1C(=O)NC(Cc1ccccc1)C(=O)O (stereo not drawn) [C9, ZINC04085288]"
6,18.5 µM,"CC(C)C[C@H](NC(=O)OCC1c2ccccc2-c2ccccc21)C(=O)O [FMOC, reference compound]"
